# According to patent US12225917B2 (priority 2017, dated 2025):
# Several values for one entry are separate records, joined by “and”; a condition that tells them apart may be missing. Equal values may be shown once. Read-outs that look alike come from different tables or passages of the source.
# Experiments:
# [1] = test system: Eimeria species; set-up: species or system commercial meat chickens; conditions: in vivo
# [2] = in vivo
# [3] = test system: Clostridium Perfringens (type A strain EHE-NE36)
# [4] = Example 3: intestinal health scores based on Tierlynck et al. 2011 (dysbacteriosis, gross gut pathology); type: in vivo, commercial meat chickens; conditions: for Ballooning (total gut) score / Contents lower intestine score / Contents upper intestine score / Hyperaemia lower intestine score / Hyperaemia upper intestine score / Tonus lower intestine score / Tonus upper intestine score / Total Intestine health score (maximum 10) / Translucency lower intestine score / Translucency upper intestine score / Undigested particles in rectum score: reference feed: Salino, or Sal Zn Bac
# Excerpt: […] General gut quality (looking for enteritis) was also visually assessed at that point.
# This is a scoring system aimed at quantifying the level of dysbacteriosis present in a group of birds, attributing scores for certain grossly visible abnormalities. Higher total scores (maximum 10) reflect a higher level of dysbacteriosis, although this may be compromised if coccidiosis is present. For our purposes, the intestinal scores simply reflect gross gut pathology.
# [5] = General safety in broilers reared to market weight by histology (Example 8); type: in vivo, broiler chickens; conditions: histology D42
# Excerpt: This study evaluates the safety of IRP001 chloride in broilers through examination of histology.
# The objective of this study was to test the general safety of IRP001 chloride in broilers reared to market weight by examination of histology.
# The experiment consisted of the following treatments (1 pen per treatment, Table 54).
# Birds were kept in a pen having an area of 4×10=40 ft^2, with clean wood shavings as bedding with a thickness of approximately 4 inches. The pen had 5 feet high side walls with a bottom 1 ½ feet being of solid wood to prevent bird migration.
# The temperature of the building was monitored. Environmental conditions during the trial (temperature) were appropriate (optimum) to the age of the animals. Illumination was provided by fluorescent bulbs placed above the pens. The diets were provided ad libitum in one tube-type feeder per pen. From D0 until D7, feed was also supplied on a tray placed on the litter of each pen. Water was provided ad libitum from one Plasson drinker per pen.
# Standard floor pen management practices were used throughout the experiment. Animals and housing facilities were inspected twice daily, observing and recording the general health status, constant feed and water supply as well as temperature, removing all dead birds, and recognizing unexpected events. Birds found dead during the study were noted on the Daily Mortality Record, and were not replaced. Pen number, the date of mortality, sex, weight, and diagnosis were recorded.
# Day of hatch male Cobb chicks were obtained and ten male broiler chicks were placed in each pen. Accountabilities of all test animals and any extra birds were recorded on animal disposition form. The birds were sexed at the hatchery. The breeder flock history and vaccination record at the hatchery were recorded. Bird weights by pen were recorded on D0 and 42.
# All weights were by pen. Treatment Starter feed was fed from D0 to 21. On D21, non-consumed Starter was weighed by pen and discarded. Grower feed was issued and fed until D35. On D35, non-consumed Grower was weighed by pen and discarded. Finisher feed was fed until D42. On D42, non-consumed Finisher was weighed by pen and discarded.
# On the day of study completion (D42), five birds from each pen were humanly euthanized and upper, mid and lower gut sections plus liver lobe were collected and stored in neutral buffered formalin. Theses samples were shipped for analysis.
# [6] = NE challenge, IVP 0.1 g/L In-water, Groups 7, 8
# [7] = NE challenge, IVP 0.2 g/kg In-feed, Group 11
# [8] = NE challenge, IVP 1.0 g/L In-water, Groups 9, 10
# [9] = NE challenge, IVP 2.0 g/kg In-feed, Group 12
# [10] = Necrotic Enteritis, IVP water 1.0 g/L, line 'Mean' of Groups 9 and 10
# [11] = Necrotic Enteritis, IVP water 1.0 g/L, per isolator, Groups 9 and 10
# [12] = Nil Challenge, IVP water 1.0 g/L, line 'Mean' of Groups 3 and 4
# [13] = Nil Challenge, IVP water 1.0 g/L, per isolator, Groups 3 and 4
# [14] = Nil challenge, IVP 1.0 g/L In-water, Groups 3, 4
# [15] = broilers in a production environment
compound,measurement,setting,value
"COc1ccc2cc3[n+](cc2c1OC)CCc1cc2c(cc1-3)OCO2 [IRP001 chloride, berberine chloride]","coccidiosis lesion scores in duodenum, jejunum and total gut",[1],highest lesion scores
same,oocyst counts in faeces,[1],numerically lower than the controls
same,total gut coccidiosis lesion scores,[1],significantly reduced total gut lesion scores
same,Feed per bird over period 0-14 days,[2],485^B g/bird and 513^A g/bird and 512^A g/bird
same,Feed per bird over period 0-21 days,[2],1186^B g/bird and 1227^AB g/bird and 1240^AB g/bird
same,Feed per bird over period 0-28 days,[2],1957 g/bird and 2037 g/bird and 2049 g/bird
same,Feed per bird over period 0-42 days,[2],4121 g/bird and 4247 g/bird and 4305 g/bird
same,Mean Weight Gain over period 0-7 days,[2],113 gm and 121 gm and 119 gm
same,Mean Weight Gain over period 8-14 days,[2],320^C gm and 334^A gm and 343^A gm
same,Mean Weight Gain over period 15-21 days,[2],491^B gm and 517^A gm and 528^A gm
same,Mean Weight Gain over period 22-28 days,[2],593 gm and 618 gm and 600 gm
same,Mean Weight Gain over period 29-42 days,[2],1324 gm and 1341 gm and 1436 gm
same,Mean live weight at 0 days,[2],41 gm
same,Mean live weight at 7 days,[2],160 gm
same,Mean live weight at 21 days,[2],923^C gm
same,growth rates throughout the experiment,[2],statistically similar to the control group
same,live weight to the end of the experiment (day 42),[2],remained significantly lighter than all other groups
same,mean live weight at 14 days,[2],significantly lower weights than the negative control
same,Median Duodenal Lesion Score (0 absent to 4 severe),[3]; [6],4
same,Median Ilial Lesion Score (0 absent to 4 severe),[3]; [6],4
same,Median Jejunal Lesion Score (0 absent to 4 severe),[3]; [6],4
same,Median Duodenal Lesion Score (0 absent to 4 severe),[3]; [7],4
same,Median Ilial Lesion Score (0 absent to 4 severe),[3]; [7],4
same,Median Jejunal Lesion Score (0 absent to 4 severe),[3]; [7],4
same,Median Duodenal Lesion Score (0 absent to 4 severe),[3]; [8],1
same,Median Ilial Lesion Score (0 absent to 4 severe),[3]; [8],1
same,Median Jejunal Lesion Score (0 absent to 4 severe),[3]; [8],1
same,Median Duodenal Lesion Score (0 absent to 4 severe),[3]; [9],1
same,Median Ilial Lesion Score (0 absent to 4 severe),[3]; [9],1
same,Median Jejunal Lesion Score (0 absent to 4 severe),[3]; [9],1
same,Mortalities prior to autopsy,"[3]; Necrotic Enteritis, IVP feed 0.2 g/kg, Group 11",9
same,Mortalities prior to autopsy,"[3]; Necrotic Enteritis, IVP feed 2 g/kg, Group 12",2
same,Mortalities prior to autopsy,"[3]; Necrotic Enteritis, IVP water 0.1 g/L, per isolator, Groups 7 and 8, listed as IVP",10
same,Mortalities prior to autopsy,[3]; [10],0
same,Mortality %,[3]; [10],0%
same,Mortalities prior to autopsy,[3]; [11],0
same,Mortality %,[3]; [11],0%
same,Mortalities prior to autopsy,[3]; [12],0
same,Mortality %,[3]; [12],0%
same,Mortalities prior to autopsy,[3]; [13],0
same,Mortality %,[3]; [13],0%
same,Median Duodenal Lesion Score (0 absent to 4 severe),[3]; [14],0
same,Median Ilial Lesion Score (0 absent to 4 severe),[3]; [14],0
same,Median Jejunal Lesion Score (0 absent to 4 severe),[3]; [14],0
same,translucency score in the upper intestine and undigested feed particles in the rectum,"[4]; 21 days, higher two levels 0.3 and 0.1 g/kg, compared with controls and 0.03 g/kg",reduced translucency score in the upper intestine and the presence of undigested feed particles in the rectum
same,total intestinal health scores compared with the controls,"[4]; 28 days, 0.3 g/kg in feed, P=0.06",approached significance
same,gastrointestinal tract (GIT) histologic lesions,[5]; [15],within normal limits
same,liver histologic lesions,[5]; [15],within normal limits
same,Cumulative Pathology and Enteritis scores,[5]; versus control Treatment 1 Nil group,equal or lower than the control
"CC[C@@H](C(=O)[C@@H](C)[C@@H](O)[C@H](C)[C@@H]1O[C@@H]([C@@H](CC)C(=O)O)CC[C@@H]1C)[C@H]1O[C@]2(C=C[C@@H](O)[C@]3(CC[C@@](C)([C@H]4CC[C@](O)(CC)[C@H](C)O4)O3)O2)[C@H](C)C[C@@H]1C [salinomycin, Salinomycin]","Faecal oocyst count, Log10 Mean",[1],4.72^B Log10 (Oocyst/g faeces)
same,"Faecal oocyst count, Mean",[1],"72,046 Oocyst/g faeces"
same,Feed per bird over period 0-14 days,[2],497^AB g/bird
same,Feed per bird over period 0-21 days,[2],1193^B g/bird
same,Feed per bird over period 0-28 days,[2],2074 g/bird
same,Feed per bird over period 0-42 days,[2],4298 g/bird
same,Mean Weight Gain over period 0-7 days,[2],116 gm
same,Mean Weight Gain over period 8-14 days,[2],330^BC gm
same,Mean Weight Gain over period 15-21 days,[2],517^A gm
same,Mean Weight Gain over period 22-28 days,[2],645 gm
same,Mean Weight Gain over period 29-42 days,[2],1384 gm
same,Mean live weight at 0 days,[2],41 gm
same,growth rates throughout the experiment,[2],statistically similar to the control group
same,mean live weight at 14 days,[2],446^AB gm
same,Ballooning (total gut) score,[4]; Age 21 days,0.10
same,Contents lower intestine score,[4]; Age 21 days,0.45
same,Contents upper intestine score,[4]; Age 21 days,0.65
same,Hyperaemia lower intestine score,[4]; Age 21 days,0.00
same,Hyperaemia upper intestine score,[4]; Age 21 days,0.15
same,Tonus lower intestine score,[4]; Age 21 days,0.50
same,Tonus upper intestine score,[4]; Age 21 days,0.50
same,Total Intestine health score (maximum 10),[4]; Age 21 days,3.55
same,Translucency lower intestine score,[4]; Age 21 days,0.85
same,Translucency upper intestine score,[4]; Age 21 days,0.20^B
same,Undigested particles in rectum score,[4]; Age 21 days,0.15^B
same,Ballooning (total gut) score,[4]; Age 28 days,0.80
same,Contents lower intestine score,[4]; Age 28 days,0.00
same,Contents upper intestine score,[4]; Age 28 days,1.00
same,Hyperaemia lower intestine score,[4]; Age 28 days,0.20
same,Hyperaemia upper intestine score,[4]; Age 28 days,0.80
same,Tonus lower intestine score,[4]; Age 28 days,0.60
same,Tonus upper intestine score,[4]; Age 28 days,0.80
same,Total Intestine health score (maximum 10),[4]; Age 28 days,5.20
same,Translucency lower intestine score,[4]; Age 28 days,0.20
same,Translucency upper intestine score,[4]; Age 28 days,0.40
same,Undigested particles in rectum score,[4]; Age 28 days,0.40
